From patent publication US7638540B2, “Benzofuran compound and medicinal composition containing the same” (The New Industry Research Organization, priority 2003, dated 2009)

Experiments:
[1] = test system: LTB4 receptor; assay: TXB2 release from guinea pig eosinophils stimulated with LTB4 (LTB4 receptor antagonist activity); assay type: cell-based; conditions: 10^−3 M test compound (37.5 μl) added to 300 μl cell suspension, then 10^−7 M LTB4 (37.5 μl), 37° C. 15 min, positive control 100, negative control 0, N.D. = TXB2 concentration at measurement limit or less
Protocol: The LTB4 receptor antagonist activity of the test compound was examined using, as an index, thromboxane B2 (TXB2) released when stimulating eosinophil of guinea pig with LTB4.
Based on the method described in Japanese Journal of Pharmacology, vol. 70, p. 337-345 (1996) etc., eosinophils of guinea pig were prepared. A cell suspension (300 μl, 1.25×10^6 cells/ml) was placed in a 5 ml polypropylene test tube and, after incubation at 37° C. for 5 min., 10^−3 M test compound (37.5 μl) dissolved in 0.1% DMSO aqueous solution was added and the cells were continuously cultured for 5 min. Then, 10^−7 M LTB4 (37.5 μl) was added to induce the reaction and the cells were incubated at 37° C. for 15 min. The reaction was quenched in ice water, and the culture was centrifuged at 4° C., 3000 rpm for 10 min. The obtained supernatant was prepared as a sample for TXB2 measurement, and preserved at −80° C. before use for the measurement. The quantitation of TXB2 was performed using a TXB2 enzyme immunoassay kit (manufactured by Cayman Chemical Company). The release ratio (%) of TXB2 from the eosinophils was determined by the following formula: release ratio (%) of TXB2=[(average value of test compound administration group−average value of negative control group)/(average value of positive control group−average value of negative control group)]×100
As used herein, the positive control group means a group to which stimulation with LTB4 was applied but the same volume of a medium was given instead of the test compound, and the negative control group means a group to which stimulation with LTB4 was not applied, the same volume of a medium was given instead of LTB4, and the same volume of a medium was given instead of the test compound. When the release ratio of TXB2 is smaller than 0, it means that the measured TXB2 concentration was lower than that of the negative control group. When the TXB2 concentration in the sample was the measurement limit or less, N.D. is indicated.

SMILES | melting point [°C] | Amount of TXB2 release (%) [1] [%]
COc1cccc2cc(C(C)NC(=O)/C=C/c3ccccc3)oc12 (centres unmarked) [Example 132, (E)-N-[1-(7-methoxybenzofuran-2-yl)ethyl]-3-phenylacrylamide] | 154.5 to 156.5 | 14.05
COc1cccc(NC(=O)/C=C/C=C(\Cl)c2cc3cc(Br)ccc3o2)c1 [Example 54, (2E,4Z)-5-(5-bromobenzofuran-2-yl)-5-chloropenta-2,4-dienoic acid (3-methoxyphenyl)amide] | 204.3 to 207.1 | 60.6
COc1ccc(CCNC(=O)/C=C(\C)c2ccc(OC(C)c3ccccc3)c3oc(C(C)=O)cc23)cc1OC (stereo not drawn) [Example 8, (E)-3-[2-acetyl-7-(l-phenylethoxy)benzofuran-4-yl]-N-[2-(3,4-dimethoxyphenyl)ethyl]-2-butenamide] | – | 41.73
CCN(CC)C(=O)/C=C(/C)c1cc2cccc(OC(C)C)c2o1 [Example 34, (Z)-3-(7-isopropoxybenzofuran-2-yl)-N,N-diethyl-2-butenamide] | – | −0.063
CCOC(=O)CCCOc1ccc(/C(C)=C/C(=O)N(CC)CC)c2cc(C(C)=O)oc12 [Example 14, Ethyl (E)-4-[2-acetyl-4-(2-diethylcarbamoyl-1-methylvinyl)benzofuran-7-yloxy]butyrate] | – | 44.81
CCOC(=O)c1oc2ccc(Br)cc2c1NC(=O)/C(C#N)=C(/C)O [Example 97, Ethyl (Z)-5-bromo-3-(2-cyano-3-hydroxy-2-butenoylamino)benzofurane-2-carboxylate] | 186.3 to 187.2 | −0.12
C/C=C/C(=O)Nc1c(C#N)oc2ccc(Br)cc12 [Example 117, (E)-N-(5-bromo-2-cyanobenzofuran-3-yl)-2-butenamide] | 206.5 to 208.2 | 54.95
COc1ccc(CCNC(=O)/C=C(\C)c2ccc3oc(C(C)=O)c(NC(=O)c4cnoc4C)c3c2)cc1OC [Example 72, (E)-N-(2-acetyl-5-(2-[2-(3,4-dimethoxyphenyl)ethylcarbamoyl]-1-methylvinyl)benzofuran-3-yl)-5-methylisoxazole-4-carboxamide] | – | 84.46
CCNS(=O)(=O)c1ccc(OCCCC(=O)OCC)c2oc(/C(C)=C\C(=O)N(CC)CC)cc12 [Example 48, Ethyl (Z)-4-[2-(2-diethylcarbamoyl-1-methylvinyl)-4-ethylsulfamoylbenzofuran-7-yloxy]butyrate] | – | 53.91
CC(=CC(=O)N1CCOCC1)c1cc2cccc(OC(c3ccccc3)c3ccccc3)c2o1 (stereo in doubt) [Example 42, (E)-3-(7-benzhydryloxybenzofuran-2-yl)-1-morpholino-2-buten-1-one] | – | 13.83
CCN(CC)C(=O)/C=C(\C)c1cc2c(Br)ccc(OCCCC(=O)O)c2o1 [Example 36, (E)-4-[4-bromo-2-(2-diethylcarbamoyl-1-methylvinyl)benzofuran-7-yloxy]butyric acid] | 125.5 to 127 | −0.301
C/C=C/C(=O)NC(C)c1cc2cccc(OC)c2o1 (centres unmarked) [Example 130, (E)-[1-(7-methoxybenzofuran-2-yl)ethyl]-2-butenamide] | 128.7 to 130.2 | 35.44
COc1ccc(CCNC(=O)/C=C/C=C(\Cl)c2cc3cccc(OC)c3o2)cc1OC [Example 56, (2E,4Z)-5-chloro-5-(7-methoxybenzofuran-2-yl)-penta-2,4-dienoic acid [2-(3,4-dimethoxyphenyl)ethyl]amide] | 151.4 to 153.3 | 52.39
CCN(CC)C(=O)/C=C(\C)c1cc2cccc(OC(c3ccccc3)c3ccccc3)c2o1 [Example 37, (E)-3-(7-benzhydryloxybenzofuran-2-yl)-N,N-diethyl-2-butenamide] | – | 15.69
CC(=O)c1oc2ccc(/C(C)=C/C(=O)N3CCN(c4ccccc4)CC3)cc2c1N [Example 18, (E)-3-(2-acetyl-3-aminobenzofuran-5-yl)-1-(4-phenylpiperazin-1-yl)-2-buten-1-one] | – | 53.91
CCOC(=O)CCCOc1ccc(Br)c2cc(/C(C)=C/C(=O)N(CC)CC)oc12 [Example 35] | – | 1.02

Further lines, with some results ahead:

melting point [°C] | SMILES | Amount of TXB2 release (%) [1] [%]
144 to 148.3 | CC(=O)c1oc2ccc(/C(C)=C/C(=O)N3CCN(Cc4ccccc4)CC3)cc2c1N [Example 19, (E)-3-(2-acetyl-3-aminobenzofuran-5-yl)-1-(4-benzylpiperazin-1-yl)-2-buten-1-one] | 48.63
197.8 to 200.2 | O=C(/C=C/c1ccccc1)Nc1c(C(=O)O)oc2ccccc12 [Example 121, (E)-3-(3-phenylacryloylamino)benzofurane-2-carboxylic acid] | 5.77
141.3 to 141.5 | CCOC(=O)CCCOc1cccc2cc(/C(C)=C/C(=O)Nc3ccc(OC)cc3)oc12 [Example 28, Ethyl (E)-4-{2-[2-(4-methoxyphenylcarbamoyl)-1-methylvinyl]benzofuran-7-yloxy}butyrate] | −0.23
132.2 to 139.7 | CC(NC(=O)/C=C/c1ccccc1)c1cc2cccc(OCCCCl)c2o1 (centres unmarked) [Example 131, (E)-N-{1-[7-(3-chloropropoxy)benzofuran-2-yl]ethyl}-3-phenylacrylamide] | 2.14
162.2 to 164.5 | COc1cccc(NC(=O)/C=C(\C)c2cc3c(S(=O)(=O)NCCc4ccc(OC)c(OC)c4)ccc(OCCCCl)c3o2)c1 [Example 51, (E)-3-{7-(3-chloropropoxy)-4-[2-(3,4-dimethoxyphenyl)ethylsulfamoyl]benzofuran-2-yl}-N-(3-methoxyphenyl)-2-butenamide] | 38.93
196 to 202.1 | CC(=O)c1cc2c(/C(C)=C/C(=O)N3CCN(Cc4ccccc4)CC3)ccc(OC(C)c3ccccc3)c2o1 (centres unmarked) [Example 10, (E)-3-[2-acetyl-7-(1-phenylethoxy)benzofuran-4-yl]-1-(4-benzylpiperazin-1-yl)-2-buten-1-one] | 23.43
199.5 to 201.9 | CCN(CC)C(=O)/C=C(\C)c1ccc(OCCCC(=O)O)c2oc(/C(C)=C/C(=O)O)cc12 [Example 2, (E)-3-[7-(3-carboxypropoxy)-4-(2-diethylcarbamoyl-1-methylvinyl)benzofuran-2-yl]-2-butenoic acid] | 5.77
173.9 to 175.4 | CC(=O)c1cc2c(/C(C)=C/C(=O)N3CCOCC3)ccc(OC(C)c3ccccc3)c2o1 (centres unmarked) [Example 9, (E)-3-[2-acetyl-7-(1-phenylethoxy)benzofuran-4-yl]-1-morpholino-2-buten-1-one] | 0.68
79 to 84.6 | CC(=O)c1cc2c(/C(C)=C/C(=O)N3CCN(c4ccccc4)CC3)ccc(OC(C)c3ccccc3)c2o1 (centres unmarked) [Example 5, (E)-3-[2-acetyl-7-(1-phenylethoxy)benzofuran-4-yl]-1-(4-phenylpiperazin-1-yl)-2-buten-1-one] | 81.6
